Test results taken from ChEMBL document CHEMBL4334516, “Kinase Chemodiversity from the Arctic: The Breitfussins” (J Med Chem, 2019).

Columns and labels:
[1] = Unbound fraction in mouse plasma at 5 uM incubated for 6 hrs at 37 degC by LC-MS analysis based equilibrium dialysis; type: ADME, cell-free
[2] = biological target: T1, Mitogen-activated protein kinase kinase kinase kinase 2 (Homo sapiens) (UniProt Q12851); test: Binding affinity to wild-type human partial length GCK (M1 to G318 residues) expressed in mammalian expression system assessed as residual binding level at 10 uM by active-site directed competition binding assay based Kinomescan method relative to control
T1 sequence (whole entry): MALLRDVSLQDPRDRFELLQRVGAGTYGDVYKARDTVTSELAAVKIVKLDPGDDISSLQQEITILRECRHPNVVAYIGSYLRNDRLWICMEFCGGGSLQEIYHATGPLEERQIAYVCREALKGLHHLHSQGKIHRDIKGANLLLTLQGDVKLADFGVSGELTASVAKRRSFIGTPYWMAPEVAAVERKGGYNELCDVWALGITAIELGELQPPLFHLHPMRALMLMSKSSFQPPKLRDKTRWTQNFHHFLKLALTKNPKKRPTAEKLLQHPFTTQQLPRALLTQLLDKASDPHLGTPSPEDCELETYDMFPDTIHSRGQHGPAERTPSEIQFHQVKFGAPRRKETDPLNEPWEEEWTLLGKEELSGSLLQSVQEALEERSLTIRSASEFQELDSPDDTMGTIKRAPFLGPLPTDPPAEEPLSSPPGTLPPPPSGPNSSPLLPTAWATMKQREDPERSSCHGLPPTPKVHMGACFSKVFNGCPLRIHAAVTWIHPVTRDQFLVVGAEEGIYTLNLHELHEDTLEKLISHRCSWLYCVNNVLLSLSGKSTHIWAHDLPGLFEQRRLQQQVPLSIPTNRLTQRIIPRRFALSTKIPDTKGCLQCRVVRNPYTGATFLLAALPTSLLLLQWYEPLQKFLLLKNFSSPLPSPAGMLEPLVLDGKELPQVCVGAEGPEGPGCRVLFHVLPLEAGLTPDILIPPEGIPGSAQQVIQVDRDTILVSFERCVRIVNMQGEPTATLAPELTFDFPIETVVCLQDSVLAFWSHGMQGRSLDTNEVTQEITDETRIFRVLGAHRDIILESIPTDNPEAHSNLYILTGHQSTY

Aurora kinase B = Aurora kinase B (Homo sapiens, UniProt Q96GD4); test: Inhibition of Aurora B (unknown origin) assessed as residual enzyme activity at 1 uM by [33P]-ATP filter binding kinase assay relative to control
[3] = biological target: Phosphatidylinositol 4-kinase beta (Homo sapiens, UniProt Q9UBF8); test: Binding affinity to wild-type human full length PIK4CB (M1 to M828 residues) expressed in mammalian expression system by active-site directed competition binding assay based Kinomescan method
[4] = Toxicity in zebrafish embryos assessed as induction of heart edema by measuring unaffected embryos level at 14 uM after 72 hrs (reference value: 100%); type: tissue-based, Danio rerio; details: in vivo
[5] = biological target: T2, Mitogen-activated protein kinase kinase kinase 7 (Homo sapiens) (UniProt O43318); test: Inhibition of TAK1 (unknown origin) assessed as residual enzyme activity at 1 uM by [33P]-ATP filter binding kinase assay relative to control
T2 sequence (whole entry): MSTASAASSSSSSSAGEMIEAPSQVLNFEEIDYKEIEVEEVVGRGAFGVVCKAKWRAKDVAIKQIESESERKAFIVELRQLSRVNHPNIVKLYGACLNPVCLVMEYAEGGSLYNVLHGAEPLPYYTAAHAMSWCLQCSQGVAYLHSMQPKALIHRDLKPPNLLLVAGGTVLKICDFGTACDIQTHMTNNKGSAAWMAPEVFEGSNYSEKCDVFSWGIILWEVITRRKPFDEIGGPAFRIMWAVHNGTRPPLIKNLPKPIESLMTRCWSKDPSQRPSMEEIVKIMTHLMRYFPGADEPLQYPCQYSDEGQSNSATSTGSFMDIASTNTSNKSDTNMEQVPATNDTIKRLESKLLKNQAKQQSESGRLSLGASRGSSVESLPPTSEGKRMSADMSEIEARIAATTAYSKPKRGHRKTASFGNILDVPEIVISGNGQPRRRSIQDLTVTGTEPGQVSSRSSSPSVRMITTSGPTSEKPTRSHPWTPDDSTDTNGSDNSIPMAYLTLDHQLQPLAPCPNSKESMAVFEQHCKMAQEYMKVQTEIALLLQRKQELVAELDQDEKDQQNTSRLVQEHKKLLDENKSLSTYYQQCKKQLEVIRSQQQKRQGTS

[6] = biological target: T1, Mitogen-activated protein kinase kinase kinase kinase 2 (Homo sapiens); test: Inhibition of GCK (unknown origin) assessed as residual enzyme activity at 1 uM by [33P]-ATP filter binding kinase assay relative to control
[7] = biological target: Serine/threonine-protein kinase pim-3 (Homo sapiens, UniProt Q86V86); test: Binding affinity to wild-type human partial length PIM3 (G16 to A317 residues) expressed in bacterial expression system assessed as residual binding level at 10 uM by active-site directed competition binding assay based Kinomescan method relative to control
[8] = Permeability assessed as drug flux at 500 uM incubated for 20 hrs by PAMPA; type: ADME
[9] = biological target: Serine/threonine-protein kinase pim-2 (Homo sapiens, UniProt Q9P1W9); test: Binding affinity to wild-type human partial length PIM2 (M1 to E291 residues) expressed in bacterial expression system assessed as residual binding level at 10 uM by active-site directed competition binding assay based Kinomescan method relative to control
[10] = Toxicity in zebrafish embryos assessed as induction of necrosis by measuring unaffected embryos level at 1.4 uM after 72 hrs (reference value: 100%); set-up: species or system Danio rerio; details: in vivo

Sequence of Phosphatidylinositol 4-kinase beta (Q9UBF8 whole entry, the tested form may be a part): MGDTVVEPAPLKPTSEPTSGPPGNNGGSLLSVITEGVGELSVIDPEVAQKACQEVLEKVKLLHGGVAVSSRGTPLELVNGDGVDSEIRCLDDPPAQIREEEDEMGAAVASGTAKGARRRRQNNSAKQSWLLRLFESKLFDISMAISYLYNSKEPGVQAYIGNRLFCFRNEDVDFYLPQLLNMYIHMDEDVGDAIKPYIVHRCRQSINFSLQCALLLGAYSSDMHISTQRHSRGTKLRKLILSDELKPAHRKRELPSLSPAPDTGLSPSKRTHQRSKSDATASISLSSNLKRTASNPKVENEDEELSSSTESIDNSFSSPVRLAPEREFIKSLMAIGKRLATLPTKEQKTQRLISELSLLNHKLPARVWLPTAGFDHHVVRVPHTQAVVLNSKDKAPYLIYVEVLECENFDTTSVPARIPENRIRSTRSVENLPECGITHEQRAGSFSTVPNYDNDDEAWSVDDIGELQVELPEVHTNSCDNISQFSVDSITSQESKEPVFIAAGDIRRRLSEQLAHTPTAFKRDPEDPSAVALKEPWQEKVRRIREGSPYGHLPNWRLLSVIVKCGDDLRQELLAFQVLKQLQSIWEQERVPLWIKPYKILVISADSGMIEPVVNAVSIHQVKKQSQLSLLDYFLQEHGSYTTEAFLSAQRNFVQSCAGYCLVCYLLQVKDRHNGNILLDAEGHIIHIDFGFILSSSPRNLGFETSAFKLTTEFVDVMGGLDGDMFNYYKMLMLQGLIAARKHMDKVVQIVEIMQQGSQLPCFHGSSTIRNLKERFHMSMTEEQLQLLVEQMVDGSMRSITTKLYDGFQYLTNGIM
Sequence of Serine/threonine-protein kinase pim-2 (Q9P1W9 whole entry, looked up, the tested form may be a part): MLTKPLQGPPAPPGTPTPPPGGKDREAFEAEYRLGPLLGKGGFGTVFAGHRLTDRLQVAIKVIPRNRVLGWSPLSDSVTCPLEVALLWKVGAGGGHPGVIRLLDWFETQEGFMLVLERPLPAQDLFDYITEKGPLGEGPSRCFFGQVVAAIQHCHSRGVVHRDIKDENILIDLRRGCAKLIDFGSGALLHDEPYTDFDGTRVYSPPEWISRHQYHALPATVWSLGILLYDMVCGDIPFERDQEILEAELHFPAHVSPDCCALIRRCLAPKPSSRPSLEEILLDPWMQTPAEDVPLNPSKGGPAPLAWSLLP
Sequence of Aurora kinase B (Q96GD4 whole entry, the tested form may be a part): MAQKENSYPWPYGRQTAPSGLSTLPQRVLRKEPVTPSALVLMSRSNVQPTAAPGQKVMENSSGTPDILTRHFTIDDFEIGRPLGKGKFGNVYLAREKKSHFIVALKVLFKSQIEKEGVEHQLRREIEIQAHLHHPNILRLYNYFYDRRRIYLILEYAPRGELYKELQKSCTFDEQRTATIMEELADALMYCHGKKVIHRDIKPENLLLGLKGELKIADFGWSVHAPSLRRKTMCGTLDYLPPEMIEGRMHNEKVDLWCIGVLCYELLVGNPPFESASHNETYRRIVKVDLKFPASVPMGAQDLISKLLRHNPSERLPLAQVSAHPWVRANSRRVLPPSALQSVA

Question: For COc1cc2c(-c3cnc(-c4ccc[nH]4)o3)c[nH]c2cc1Br, which Fu [1] is on record?
Answer: 0.3%

Question: And the Activity [2]?
Answer: 72%

Question: What about the Activity (Aurora kinase B) of the same compound?
Answer: 33%

Question: And the Kd [3]?
Answer: 2900 nM

Question: What about the Activity [4] of the same compound?
Answer: 100%

Question: And the Activity [5]?
Answer: 35%

Question: And the Activity [6]?
Answer: 31%

Question: What about the Activity [7] of the same compound?
Answer: 21%

Question: And the permeability [8]?
Answer: 23%

Question: What about the Activity [9] of the same compound?
Answer: 54%

Question: What about the Activity [10] of the same compound?
Answer: 0%
